Assay results from BindingDB's records for doi:10.1021/jm00059a019 (Merck Research Laboratories, 1993).

Molecular target: T1, Dimer of Gag-Pol polyprotein [489-587] (Human immunodeficiency virus 1, UniProt P12497)
T1 construct: 489-587
Assay: Protease Inhibition Assay
Conditions: pH 5.5; 30 °C
Protocol: Sensitivity of HIV-1 protease activity to protease inhibitors was determined by a peptide substrate cleavage assay. Protease products were analyzed on a reverse-phase high-pressure liquid chromatograph.

## CC(C)(C)NC(=O)C1C[C@@H]2CCCC[C@@H]2CN1C[C@@H](O)[C@H](Cc1ccccc1)NC(=O)OCCS(C)(=O)=O (stereo partly drawn) [2-methanesulfonylethyl N-[(2S,3R)-4-[(4aS,8aS)-3-(tert-butylcarbamoyl)-decahydroisoquinolin-2-yl]-3-hydroxy-1-phenylbutan-2-yl]carbamate]
  IC50: 1030 nM

## CC(C)[C@@H]1[C@H](OC(=O)N[C@@H](Cc2ccccc2)[C@H](O)CN2C[C@H]3CCCC[C@H]3CC2C(=O)NC(C)(C)C)CCS1(=O)=O (stereo partly drawn) [(2R,3R)-1,1-dioxo-2-(propan-2-yl)--thiolan-3-yl N-[(2S,3R)-4-[(4aS,8aS)-3-(tert-butylcarbamoyl)-decahydroisoquinolin-2-yl]-3-hydroxy-1-phenylbutan-2-yl]carbamate]
  IC50: 3 nM

## CC(C)C[C@@H]1[C@H](OC(=O)N[C@@H](Cc2ccccc2)[C@H](O)CN2C[C@H]3CCCC[C@H]3CC2C(=O)NC(C)(C)C)CCS1(=O)=O (stereo partly drawn) [(2R,3R)-2-(2-methylpropyl)-1,1-dioxo--thiolan-3-yl N-[(2S,3R)-4-[(4aS,8aS)-3-(tert-butylcarbamoyl)-decahydroisoquinolin-2-yl]-3-hydroxy-1-phenylbutan-2-yl]carbamate]
  IC50: 30 nM

## CC[C@@H]1[C@H](OC(=O)N[C@@H](Cc2ccccc2)[C@H](O)CN2C[C@H]3CCCC[C@H]3CC2C(=O)NC(C)(C)C)CCS1(=O)=O (stereo partly drawn) [(2R,3R)-2-ethyl-1,1-dioxo--thiolan-3-yl N-[(2S,3R)-4-[(4aS,8aS)-3-(tert-butylcarbamoyl)-decahydroisoquinolin-2-yl]-3-hydroxy-1-phenylbutan-2-yl]carbamate]
  IC50: 13.1 nM

## C[C@H]1OCC[C@H]1OC(=O)N[C@@H](Cc1ccccc1)[C@H](O)CN1C[C@H]2CCCC[C@H]2CC1C(=O)NC(C)(C)C (stereo partly drawn) [(2R,3R)-2-methyloxolan-3-yl N-[(2S,3R)-4-[(4aS,8aS)-3-(tert-butylcarbamoyl)-decahydroisoquinolin-2-yl]-3-hydroxy-1-phenylbutan-2-yl]carbamate]
  IC50: 169 nM

## CC(C)C[C@H]1[C@@H](OC(=O)N[C@@H](Cc2ccccc2)[C@H](O)CN2C[C@H]3CCCC[C@H]3CC2C(=O)NC(C)(C)C)CCS1(=O)=O (stereo partly drawn) [(2S,3S)-2-(2-methylpropyl)-1,1-dioxo--thiolan-3-yl N-[(2S,3R)-4-[(4aS,8aS)-3-(tert-butylcarbamoyl)-decahydroisoquinolin-2-yl]-3-hydroxy-1-phenylbutan-2-yl]carbamate]
  IC50: 12 nM

## CC[C@H]1[C@@H](OC(=O)N[C@@H](Cc2ccccc2)[C@H](O)CN2C[C@H]3CCCC[C@H]3CC2C(=O)NC(C)(C)C)CCS1(=O)=O (stereo partly drawn) [(2S,3S)-2-ethyl-1,1-dioxo--thiolan-3-yl N-[(2S,3R)-4-[(4aS,8aS)-3-(tert-butylcarbamoyl)-decahydroisoquinolin-2-yl]-3-hydroxy-1-phenylbutan-2-yl]carbamate]
  IC50: 5.4 nM

## C[C@H]1[C@@H](OC(=O)N[C@@H](Cc2ccccc2)[C@H](O)CN2C[C@H]3CCCC[C@H]3CC2C(=O)NC(C)(C)C)CCS1(=O)=O (stereo partly drawn) [(2S,3S)-2-methyl-1,1-dioxo--thiolan-3-yl N-[(2S,3R)-4-[(4aS,8aS)-3-(tert-butylcarbamoyl)-decahydroisoquinolin-2-yl]-3-hydroxy-1-phenylbutan-2-yl]carbamate]
  IC50: 11.4 nM

## C[C@@H]1OCC[C@@H]1OC(=O)N[C@@H](Cc1ccccc1)[C@H](O)CN1C[C@H]2CCCC[C@H]2CC1C(=O)NC(C)(C)C (stereo partly drawn) [(2S,3S)-2-methyloxolan-3-yl N-[(2S,3R)-4-[(4aS,8aS)-3-(tert-butylcarbamoyl)-decahydroisoquinolin-2-yl]-3-hydroxy-1-phenylbutan-2-yl]carbamate]
  IC50: 52.4 nM

## CC(C)(C)NC(=O)C1C[C@@H]2CCCC[C@@H]2CN1C[C@@H](O)[C@H](Cc1ccccc1)NC(=O)O[C@@H]1CCS(=O)(=O)C1 (stereo partly drawn) [(3R)-1,1-dioxo--thiolan-3-yl N-[(2S,3R)-4-[(4aS,8aS)-3-(tert-butylcarbamoyl)-decahydroisoquinolin-2-yl]-3-hydroxy-1-phenylbutan-2-yl]carbamate]
  IC50: 140 nM

## CC(C)(C)NC(=O)C1C[C@@H]2CCCC[C@@H]2CN1C[C@@H](O)[C@H](Cc1ccccc1)NC(=O)O[C@H]1CCS(=O)(=O)C1 (stereo partly drawn) [(3S)-1,1-dioxo--thiolan-3-yl N-[(2S,3R)-4-[(4aS,8aS)-3-(tert-butylcarbamoyl)-decahydroisoquinolin-2-yl]-3-hydroxy-1-phenylbutan-2-yl]carbamate]
  IC50: 75 nM

## CC(C)[C@H]1[C@@H](OC(=O)N[C@@H](Cc2ccccc2)[C@H](O)CN2C[C@H]3CCCC[C@H]3CC2C(=O)NC(C)(C)C)CCS1(=O)=O (stereo partly drawn) [hydroxyethylene isostere]
  IC50: 11 nM

## C[C@@H]1[C@H](OC(=O)N[C@@H](Cc2ccccc2)[C@H](O)CN2C[C@H]3CCCC[C@H]3CC2C(=O)NC(C)(C)C)CCS1(=O)=O (stereo partly drawn) [hydroxyethylene isostere]
  IC50: 22.3 nM
